Tests used:
HDAC1 = target: T1, HDAC1 (Homo sapiens, UniProt Q13547); experiment: Fluorescence-based HDAC enzyme assay, recombinant HDAC1; assay type: biochemical; details: recombinant human HDAC enzyme in vitro; read-out: IC50 (μM) HD1
T1 construct: cDNAs corresponding to the full length human HDAC1, 2, 3 and 11 were cloned into pBlueBac4.5 vector; FLAG (C); made in house; host or cells: Sf-9 insect cells (baculovirus)
Text: (§1) cDNAs of human HDAC1-8 and 11 were generated by RT-PCR reactions using primers complementary to the 5′ and 3′ coding sequence of human HDAC gene sequences in GenBank. cDNAs corresponding to the full length human HDAC1, 2, 3 and 11 were cloned into pBlueBac4.5 vector (Invitrogen). The constructs were used to generate recombinant baculoviruses using the Bac-N-Blue™ DNA according to the manufacturer's instructions (Invitrogen). The recombinant HDAC1, 2, 3, 11 proteins produced harbor a FLAG tag at their C-termini. cDNAs encoding truncated versions of HDAC4, 5 and 7 encompassing their deacetylase domains were cloned into pDEST10 as an N-terminal hexahistidine fusion protein and recombinant baculoviruses were generated using the Bac-to-Bac™ Baculovirus expression system (Invitrogen). HDAC6 and 8 were cloned as full length N-terminally His-tagged protein. All HDAC proteins were expressed in insect Sf-9 cells (Spodoptera frugiperdai) upon infection with recombinant baculovirus. HDAC1 enzyme was purified from the Q-sepharose FF column (Amersham Pharmacia Biotech, Baie d'Urfe QC, Canada) followed by an anti-FLAG immunoaffinity column (Sigma). […] HDAC4, 5, 6, 7 and 8 were purified using either Ni-NTA resin (QIAGEN Mississauga ON, Canada) or His-Select resin (Sigma) with step washes and elution with different concentrations of imidazole in Buffer containing 25 mM Tris (or NaPO4) pH 8.0, 10% glycerol and 150 mM or 500 mM NaCl.
(§2) Boc-Lys(Ac)-AMC (for HDAC1, 2, 3, 6, and 8 enzymes), which was purchased from Bachem Biosciences Inc., (King of Prussia, Philadelphia) were added into enzyme-compound mixture and incubated at 37° C. For HDAC4, 5, 7 assays, Boc-Lys(TFA)-AMC, which was synthesized in house, was used as substrate and 0.1% BSA was added to the buffer. […] Reaction time was predetermined to ensure that reaction was linear for the incubation time. Reaction was stopped by adding a freshly prepared trypsin (1 mg/ml final concentration) with 1 μM TSA (Biomol) in assay buffer. After 30 minutes, fluorescence was measured using a fluorometer (SPECTRAMAX GeminiXS, Molecular Devices, Sunnylvale, Calif.).

HDAC3 = target: T2, HDAC3 (Homo sapiens, UniProt O15379); experiment: Fluorescence-based HDAC enzyme assay, recombinant HDAC3; assay type: biochemical; details: recombinant human HDAC enzyme in vitro; read-out: IC50 (μM) HD3
T2 construct: cDNAs corresponding to the full length human HDAC1, 2, 3 and 11 were cloned into pBlueBac4.5 vector; FLAG (C); made in house; host or cells: Sf-9 insect cells (baculovirus)
T2 sequence (O15379 whole entry): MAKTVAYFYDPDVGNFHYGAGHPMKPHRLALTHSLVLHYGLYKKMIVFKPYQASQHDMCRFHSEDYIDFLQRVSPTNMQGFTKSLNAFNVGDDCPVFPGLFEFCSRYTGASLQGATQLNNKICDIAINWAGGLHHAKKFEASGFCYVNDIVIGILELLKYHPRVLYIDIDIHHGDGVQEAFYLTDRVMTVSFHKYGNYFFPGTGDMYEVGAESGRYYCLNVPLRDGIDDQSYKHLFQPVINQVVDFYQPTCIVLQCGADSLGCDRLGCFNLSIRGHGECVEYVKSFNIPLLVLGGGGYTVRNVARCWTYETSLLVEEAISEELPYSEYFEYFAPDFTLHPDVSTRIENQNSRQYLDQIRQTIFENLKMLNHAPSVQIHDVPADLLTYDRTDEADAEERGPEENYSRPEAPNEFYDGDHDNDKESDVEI
Text: cDNAs of human HDAC1-8 and 11 were generated by RT-PCR reactions using primers complementary to the 5′ and 3′ coding sequence of human HDAC gene sequences in GenBank. cDNAs corresponding to the full length human HDAC1, 2, 3 and 11 were cloned into pBlueBac4.5 vector (Invitrogen). The constructs were used to generate recombinant baculoviruses using the Bac-N-Blue™ DNA according to the manufacturer's instructions (Invitrogen). The recombinant HDAC1, 2, 3, 11 proteins produced harbor a FLAG tag at their C-termini. cDNAs encoding truncated versions of HDAC4, 5 and 7 encompassing their deacetylase domains were cloned into pDEST10 as an N-terminal hexahistidine fusion protein and recombinant baculoviruses were generated using the Bac-to-Bac™ Baculovirus expression system (Invitrogen). HDAC6 and 8 were cloned as full length N-terminally His-tagged protein. All HDAC proteins were expressed in insect Sf-9 cells (Spodoptera frugiperdai) upon infection with recombinant baculovirus. HDAC1 enzyme was purified from the Q-sepharose FF column (Amersham Pharmacia Biotech, Baie d'Urfe QC, Canada) followed by an anti-FLAG immunoaffinity column (Sigma). HDAC2, 3 and 11 were purified using Flag-antibody immunoaffinity purification. HDAC4, 5, 6, 7 and 8 were purified using either Ni-NTA resin (QIAGEN Mississauga ON, Canada) or His-Select resin (Sigma) with step washes and elution with different concentrations of imidazole in Buffer containing 25 mM Tris (or NaPO4) pH 8.0, 10% glycerol and 150 mM or 500 mM NaCl.
Recombinant HDAC enzymes were incubated with diluted compounds in assay buffer (25 mM Hepes, pH 8.0, 137 mM NaCl, 1 mM MgCl2 and 2.7 mM KCl) for 10 minutes at ambient temperatures in black 96-well plate. Boc-Lys(Ac)-AMC (for HDAC1, 2, 3, 6, and 8 enzymes), which was purchased from Bachem Biosciences Inc., (King of Prussia, Philadelphia) were added into enzyme-compound mixture and incubated at 37° C. […] After 30 minutes, fluorescence was measured using a fluorometer (SPECTRAMAX GeminiXS, Molecular Devices, Sunnylvale, Calif.). […]

[1] = test system: recombinant human HDAC enzymes; experiment: HDAC isotype selectivity across recombinant HDAC enzymes; assay type: biochemical; details: from Table 1
Text: as §1, §2

HDAC2 = target: T3, HDAC2 (Homo sapiens, UniProt Q92769); experiment: Fluorescence-based HDAC enzyme assay, recombinant HDAC2; assay type: biochemical; details: recombinant human HDAC enzyme in vitro; read-out: IC50 (μM) HD2
T3 construct: cDNAs corresponding to the full length human HDAC1, 2, 3 and 11 were cloned into pBlueBac4.5 vector; FLAG (C); made in house; host or cells: Sf-9 insect cells (baculovirus)
T3 sequence (Q92769 whole entry): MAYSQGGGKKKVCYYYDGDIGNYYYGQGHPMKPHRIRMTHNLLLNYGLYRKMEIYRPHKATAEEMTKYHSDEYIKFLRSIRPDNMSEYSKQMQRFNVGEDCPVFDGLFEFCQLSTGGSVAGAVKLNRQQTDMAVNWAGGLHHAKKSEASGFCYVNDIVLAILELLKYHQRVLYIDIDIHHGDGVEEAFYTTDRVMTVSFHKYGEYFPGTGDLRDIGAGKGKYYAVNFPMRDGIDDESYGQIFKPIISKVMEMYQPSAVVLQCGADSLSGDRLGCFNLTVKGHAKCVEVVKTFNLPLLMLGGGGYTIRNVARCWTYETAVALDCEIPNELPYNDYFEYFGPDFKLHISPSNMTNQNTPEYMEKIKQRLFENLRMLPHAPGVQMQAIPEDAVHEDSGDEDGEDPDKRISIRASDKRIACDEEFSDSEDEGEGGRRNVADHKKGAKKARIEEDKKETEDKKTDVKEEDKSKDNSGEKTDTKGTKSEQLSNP
Text: as §1, §2

[2] = test system: tubulin acetylation in human bladder carcinoma T24 cells; experiment: Cell-based ELISA for tubulin acetylation
Procedure: (§3) Bladder carcinoma T24 cells were seeded in black plates with clear bottoms (Costar #3603) at 1×10^4 cells per well in a volume of 100 μl per well, and were allowed to settle for one day at 37° C. in a CO2 incubator. The cells were treated for 16 h with various concentrations of HDAC inhibitors. 3 h before the end of the treatment, Alamar Blue (BioSource) was added to monitor cell viability according to the manufacturer's instructions. At the end of the treatment time, Alamar Blue OD (at 570 nm and 600 nm) was recorded, then the cells were carefully washed in PBS, fixed in pre-chilled methanol for 10 min at −20° C., washed again twice in PBS, and blocked in PBS containing 0.1% Triton X-100 and 1% BSA for a minimum of 30 min. For H3 acetylation, rabbit-anti-acetyl-H3 (Upstate #06-599) was used as primary antibody at a dilution of 1:1000 for 45 min; the secondary antibody was HRP-coupled goat-anti-rabbit (Sigma #A-0545), used at 1:8000 for 45 min. For tubulin acetylation, the primary antibody was mouse anti-acetyl-tubulin (Sigma #T-6793, 1:2000, 45 min) while the secondary was HRP-coupled goat-anti-mouse antibody (Sigma #A-2304, 1:8000, 45 min). All antibodies were diluted in blocking buffer, and the cells were washed in blocking buffer following each antibody incubation. […] The fluorescent signal for acetylation was normalized by dividing with the viability data obtained from Alamar Blue. EC50 was defined as the concentration of compound which gave a signal half-way between the basal (untreated) level and the maximum level generated by high doses of the HDAC pan-inhibitor NVP-LAQ-824.

[3] = test system: histone H3 acetylation in human bladder carcinoma T24 cells; experiment: Cell-based ELISA for H3 acetylation
Procedure: as §3

H460 (NSCLC) xenografts = experiment: H460 (NSCLC) xenograft, oral HDAC inhibitor with taxol; assay type: in vivo, mouse; details: Compound A 100 mg/kg or SAHA 120 mg/kg with taxol 60 mg/kg
Procedure: (§4) Antitumor studies were done using human H460 non-small cell lung tumor, Du145 prostate tumor, TSU-Pr1 prostate tumor, and AZ521 gastric tumor xenograft model in male BALBc/A nude mice (from Japan Crea Inc., Japan). Male nude mice were used at age 8-10 weeks. Human carcinoma cells were injected subcutaneously in the animal flank and allowed to form solid tumors. Tumor fragments (about 2 mm^3 fragments) were then removed and implanted subcutaneously through a small surgical incision to the right flank of other animals. […] Tumor volumes and gross body weight of animals were monitored twice weekly for up to 2 weeks for AZ-521 and TSU-Pr1, or 4 weeks for H460 and Du145 xenografts. Each experimental group contained 6 animals.

[4] = test system: VEGF expression in DU145 cells; experiment: VEGF transcription in Du145 cells in vitro; assay type: cell-based, human; details: 24 hour treatment
Procedure: (§5) Human prostate cancer Du145 cells were exposed to Cpd A or SAHA (3 microM) for 24 hours. Total RNA was collected by Isogen (Nippongene, Tokyo, Japan) and reverse-transcribed to cDNA by ExScript® RT reagent Kit (TAKARA, Kyoto, Japan). The expression level of bFGF mRNA was detected by ABI7700 analyzer using probe/primer pre-mixture reagent (ABI, Cat# Hs00266645_m1, CA, USA) and TaqMan® Universal PCR Master Mix (ABI, Cat# 430-4437) as described in the ABI's protocol. The expression level of VEGF mRNA was detected in a similar manner using the appropriate probe/primer reagents.

[5] = test system: TSP-1 expression in cancer cells (Du145, H460, A549); experiment: TSP-1 transcription in cancer cells in vitro; assay type: cell-based, human; details: over time, 3 microM, 24 hours
Procedure: Cells were exposed by Cpd A or SAHA (3 microM) for 24 hours. Total RNA was collected by Isogen (Nippongene, Tokyo, Japan) and reverse-transcribed to cDNA by ExScript® RT reagent Kit (TAKARA, Kyoto, Japan). The expression level of TSP-1 mRNA was detected by ABI7700 analyzer using a probe/primer pre-mixture reagent (ABI, Cat#, CA, USA) and TaqMan® Universal PCR Master Mix (ABI, Cat# 430-4437) as described in the ABI's protocol.

[6] = test system: human H460 non-small cell lung tumor, Du145 prostate tumor, TSU-Pr1 prostate tumor, and AZ521 gastric tumor xenograft; experiment: Xenograft combination studies with taxol (Example 15); assay type: in vivo, mouse; details: oral administration, nude mice with human lung, prostate and gastric tumors
Procedure: as §4

[7] = test system: bFGF transcription in human prostate cancer Du145 cells; experiment: bFGF transcription in Du145 cells in vitro; assay type: cell-based; details: 3 μM, 24 hour treatment
Procedure: as §5

[8] = test system: mouse endothelial MS-1 cells; experiment: Growth inhibition of MS-1 cells by taxol with recombinant TSP-1; assay type: cell-based; details: recombinant TSP1 10 ug/ml, 72 hour
Procedure: Mouse endothelial MS-1 cells were seeded into 96 well-plate and incubated in 5% CO2 incubator for 24 hours. Taxol at various concentrations was added into cell culture and 6 hours later media were replaced with fresh media containing recombinant TSP1 (10 ug/ml) but without taxol. After 72 hour incubation, the growth inhibitory effect was determined by crystal violet staining.

T1 sequence (Q13547 whole entry): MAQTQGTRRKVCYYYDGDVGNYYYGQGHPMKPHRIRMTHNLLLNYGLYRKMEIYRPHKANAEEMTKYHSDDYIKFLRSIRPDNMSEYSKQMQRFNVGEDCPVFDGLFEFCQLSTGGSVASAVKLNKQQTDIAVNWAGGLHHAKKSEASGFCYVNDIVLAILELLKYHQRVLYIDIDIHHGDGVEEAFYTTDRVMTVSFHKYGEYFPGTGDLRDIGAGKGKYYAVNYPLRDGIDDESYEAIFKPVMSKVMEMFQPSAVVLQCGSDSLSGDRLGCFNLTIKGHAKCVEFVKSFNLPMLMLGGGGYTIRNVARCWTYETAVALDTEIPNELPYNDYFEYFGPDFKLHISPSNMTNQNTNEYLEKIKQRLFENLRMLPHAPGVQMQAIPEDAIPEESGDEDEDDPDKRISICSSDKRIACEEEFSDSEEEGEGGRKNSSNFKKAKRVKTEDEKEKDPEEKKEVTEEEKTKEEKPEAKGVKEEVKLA

## O=C(Nc1ccccc1)c1ccc(CNc2nccc(-c3cccnc3)n2)cc1 [Compound C]
HDAC1
  IC50: > 10 µM
HDAC3
  IC50: > 10 µM
[1]
  HDAC isotype selectivity: inactive
HDAC2
  IC50: > 10 µM

## O=C(/C=C/c1ccc(CN(CCO)CCc2c[nH]c3ccccc23)cc1)NO [NVP-LAQ824]
[2]
  tubulin acetylation: Nonselective effect
[3]
  histone H3 acetylation: Nonselective effect

## O=C(CCCCCCC(=O)Nc1ccccc1)NO [SAHA, reference compound]
[2]
  tubulin acetylation: Nonselective effect
H460 (NSCLC) xenografts
  tumor response to combination therapy with taxol: tumor regression
[3]
  histone H3 acetylation: Nonselective effect
[4]
  VEGF expression: Reduction
[5]
  TSP-1 expression: Induction
[6]
  antitumor activity of taxol: Potentiation
[7]
  bFGF transcription: Reduction

## Recombinant TSP-1: recombinant thrombospondin-1, agonist of TSP1 receptor
[8]
  proapoptotic effect of taxol: Potentiates

Source: patent publication US20090124631A1, “Combination Therapy” (priority 2007, published 2009)
